Experiment [1] concerns septin structures in MV3 melanoma xenografts. In words: Septin foci at invasive front of MV3 SEPT6-GFP xenograft tumors (ctASLM). The settings on record: mice with MV3 SEPT6-GFP tumors, FCF via oral gavage. The class given is in vivo, NOD SCID mice. From the text:
NOD SCID mice were flank-injected with SEPT6-GFP-expressing MV3 melanoma cells to form xenograft tumors. Once tumors were palpable at injection sites they were dissected out with surrounding stroma, fixed, cleared, and imaged via cleared tissue axially-scanned lightsheet microscopy (ctASLM) to observe and quantify bleb formation and septin structure formation. As shown in FIG. 18A and FIG. 18B these in vivo experiments recapitulated in vitro results described previously, showing blebby morphologies with associated punctate septin structures (FIG. 18A). Importantly, this phenotype was exclusively observed at the invasive front of tumors, where cells lose contact to surrounding tissue, and not in the densely packed tumor core (FIG. 18B). These findings agree with previous research showing that blebby amoeboid-like cells are enriched at tumor invasive fronts. […] Furthermore, they support the idea that such bleb-associated septin signaling hubs are relevant in disease progression in human patients.
Specifically, FIG. 20A and FIG. 20B depict graphs illustrating the feasibility of anti-septin therapy in vivo. In triplicate experiments, mice growing tumors formed with SEPT6-GFP expressing MV3 melanoma cells (using the methods described in Example 8 above) were treated with FCF via oral gavage and septin structures were analyzed. […]

For another experiment, the system named is MV3 cells. In words: Caspase activity assay (CellEvent Caspase-3/7) in MV3 cells. The experiment is classed as cell-based, human. The settings on record: detached MV3 cells, 4 h, 10 μg/mL WGA. How it is done: Detached/Adhered Cell Culture. […] Drug treatments, solvent-only controls, or CellEvent caspase activity sensor were added to suspensions if appropriate to the experiment, and then immediately transferred to both an uncoated (for detached cells) and ibiTreated (for adhered cells) 8-well ibidi u-slide (ibidi cat #80821 and 80826) at 200 μl/well. Both slides were stored at 37° C. and 5% CO2 for either 24 hours (hrs) for viability assays, 3 hrs for ERK activity assays or 4 hours for caspase activation assays. Uncoated slides (detached) were nutated at 20 rpm during this time. […]
Viability, ERK Activity, and Caspase ActivityCell Counting Assays. Viability, ERK activity, and caspase activity assays were analyzed using live-cell fluorescent and phase-contrast microscopy, performed on a Nikon Ti microscope equipped with an environmental chamber held at 37° C. and 5% CO2 at 20× magnification. […] Live and dead cells (as identified by significant cellular ethidium signal) were counted using the Cell Counter ImageJ plugin. For ERK activity assays, live cells carrying ERK-nKTR-GFP and H2B-mCherry were imaged after 3 hours of experimental conditions and high/low ERK activity cells were counted with Cell Counter ImageJ plugin. […] Caspase positive and negative cells (as identified by significant cellular CellEvent signal) were counted using the Cell Counter ImageJ plugin.

`O=C(Nc1ccccc1)Nc1ccnc(Cl)c1` [FCF, forchlorfenuron]: in experiment [1], the “intensity of septin foci at the invasive front” value is listed as “dimmer” and the “number of septin foci at the invasive front” value is “significantly fewer”.

For the molecule wheat germ agglutinin [WGA], the caspase activation result in the experiment with MV3 cells is “consistent and specific increase of caspase activation”.
